Drawing on US20240150277A1, “Covalent PPARG inverse-agonists” (Bayer Aktiengesellschaft, priority 2022, published 2024), this text covers IC50 and Emax for eleven compounds.

Like-named read-outs stand apart in the source and are kept apart here.

The target of one assay is T1, PPARG receptors (Homo sapiens, UniProt P37231).
T1 construct: leading to PPARG dependent expression of the NanoLuc@ Luciferase; endogenous in cells
T1 sequence (P37231 1-505): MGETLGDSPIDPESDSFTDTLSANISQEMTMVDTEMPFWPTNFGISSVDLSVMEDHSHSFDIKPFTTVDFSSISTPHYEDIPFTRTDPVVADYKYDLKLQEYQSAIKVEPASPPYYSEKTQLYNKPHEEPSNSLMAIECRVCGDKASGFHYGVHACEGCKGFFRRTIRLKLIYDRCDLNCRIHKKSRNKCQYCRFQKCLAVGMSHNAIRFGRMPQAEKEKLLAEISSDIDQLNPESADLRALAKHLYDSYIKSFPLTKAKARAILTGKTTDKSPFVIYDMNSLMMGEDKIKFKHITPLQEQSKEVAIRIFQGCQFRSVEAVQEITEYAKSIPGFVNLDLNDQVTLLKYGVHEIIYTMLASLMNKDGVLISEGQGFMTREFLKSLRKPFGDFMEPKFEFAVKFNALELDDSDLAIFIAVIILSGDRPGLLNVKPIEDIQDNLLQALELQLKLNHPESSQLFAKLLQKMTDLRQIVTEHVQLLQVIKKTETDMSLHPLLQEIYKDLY
Briefly: RT-112-FABP4-NLuc Reporter Gene Assay (inverse agonism). Format: cell-based. The settings on record: incubated over night; for IC50: bladder cancer cell line RT-112/84, NanoLuc in FABP4 3′ UTR, 50 μM to 0.03 nM; for Emax: RT112/84, read-out: PPARG_RT-112_FABP4_NLuc_inverse agonist Efficacy - [%], bladder cancer cell line RT-112/84, NanoLuc in FABP4 3′ UTR. On the procedure: Inverse agonists reduce the basal expression of the Luciferase resulting in a decrease of the Luciferase signal after addition of substrate and cell lysis. To exclude toxic effects of the compounds a parallel measurement of cell viability was performed based on the CellTiter Glo Assay (Promega).
On the next day 10 μl of test compounds dissolved in DMEM/F12 2% FBS and 0,01% BSA are placed in the wells of the microtiter plates. Final concentrations ranged from 50 μM to 0.03 nM. […] On the next day the NanoLuc Luciferase activity was measured by addition of 40 μl of NanoLuc substrate and lysis buffer (Promega, Madison, Wisconsin) diluted in 2 mM Ca-tyrode buffer (20 mM HEPES, 130 mM NaCl, 5 mM KCl, 5 mM NaHCO3, 2 mM MgCl2, pH 7,4). The resulting light signal was measured for 60 seconds in a luminometer. Every sample was tested in quadruples and mean values were used to calculate the IC50 values and efficacies of the compounds.

In another assay the test system is UMUC9 cells. The experiment in a line: Proliferation UMUC9 H2B-GFP assay (Incucyte). Format: cell-based. The settings on record: 7 days of treatment; for Emax: UM-UC-9, 168 h, % efficacy (span); for IC50: UM-UC-9, relative IC50, Day 1 subtracted, percentage of DMSO control. As to the method: Proliferation UMUC9 H2B-GFP assay
Instrument: Incucyte® (Sartorius).
Description: Incucyte® Proliferation Assay measures cell proliferation based on nuclei count using live-cell time-lapse imaging. […] Measurements were performed on the day of treatment (Day 1 reading) and after 7 days of treatment (Day 8 reading). Green fluorescence in cell nuclei is measured using the instrument (Image Channels: Phase, Green; Acquisition time: 300 ms; Magnification: 4×).
Analysis: Selected metrics for analysis: Phase Object Confluence (Percent), Nuclei Count (1/Well) and Total Nuclei Area (μm^2/Well). Day 1 measurements were subtracted from each Day 8 measurement and expressed as percentage of the vehicle (DMSO) control. Percentage proliferation values were then plotted against compound concentration using GraphPad PRISM software. The Sigmoidal 4PL X is log (concentration) model of […] was used. Relative IC50 values and % efficacy (span) is reported below.

[1] abbreviates: PPARG_RT-112_FABP4_NLuc_inverse agonist IC50 - [mol/l].
Setting [2] is: read-out: PPARG_RT-112_FABP4_NLuc_inverse agonist IC50 - [mol/l].

For `O=C(NCc1ccc(F)c(F)c1)c1cc(C(=O)Nc2ccc(N3CCOCC3)cc2)c(Cl)cc1F` [Example 35, 4-chloro-N^1-(3,4-difluorobenzyl)-6-fluoro-N^3-(4-morpholinophenyl)isophthalamide], the IC50 at PPARG receptors (setting [1]) turned out to be 21.5 nM; with UMUC9 cells it was 182 nM. Further, the figures for the Emax at PPARG receptors and in the assay on UMUC9 cells were 102% and 92.3%, respectively.

`O=C(NCc1ccc(F)c(F)c1)c1cc(C(=O)Nc2cnc(Oc3ccccc3)cn2)c(Cl)cc1F` [Example 36, 4-chloro-N^1-(3,4-difluorobenzyl)-6-fluoro-N^3-(5-phenoxypyrazin-2-yl)isophthalamide]: the IC50 at PPARG receptors (setting [1]) worked out at 1.26 nM; in the assay with UMUC9 cells, 5.98 nM. The Emax at PPARG receptors is 97.5%; with UMUC9 cells it was 66%.

On to `COc1ccccc1CNC(=O)c1cc(Cl)c(Cl)c(C(=O)Nc2ccc(N3CCOCC3)cn2)c1` [Example 38, 4,5-dichloro-N^1-(2-methoxybenzyl)-N^3-(5-morpholinopyridin-2-yl)isophthalamide], for which the IC50 amounted to 0.73 nM on PPARG receptors (setting [1]) and 4.23 nM with UMUC9 cells. Also, the Emax turned out to be 98.5% at PPARG receptors and 49.5% with UMUC9 cells.

In the case of `Cc1cccc(-c2nc3cc(NC(=O)c4cc(C(=O)NCc5ccc(F)c(F)c5)c(F)cc4Cl)ccc3o2)c1` [Example 39, 4-chloro-N^1-(3,4-difluorobenzyl)-6-fluoro-N^3-(2-(m-tolyl)benzo[d]oxazol-5-yl)isophthalamide], the Emax at PPARG receptors is 95.5%; in the assay on UMUC9 cells, 88.7%. Further, the IC50 on PPARG receptors (setting [2]) turned out to be 6.55 nM; in the assay with UMUC9 cells it was 34.2 nM.

`C#Cc1cc(F)c(C(=O)NCc2ccc(F)c(F)c2)cc1C(=O)Nc1ccccc1` [Example 40, N^1-(3,4-difluorobenzyl)-4-ethynyl-6-fluoro-N^3-phenylisophthalamide]: the IC50 at PPARG receptors (setting [1]) worked out at 1600 nM; with UMUC9 cells it was 391 nM. For the same compound, the Emax at PPARG receptors came to 114%; in the assay on UMUC9 cells, 72.1%.

Regarding `O=C(NCc1ccc(F)c(F)c1)c1cc(Cl)c(Cl)c(C(=O)Nc2cnccn2)c1` [Example 42, 4,5-dichloro-N^1-(3,4-difluorobenzyl)-N^3-(pyrazin-2-yl)isophthalamide], the IC50 at PPARG receptors (setting [1]) was 4.7 nM; in the assay with UMUC9 cells, 1.94 nM. Moreover, the figures for the Emax on PPARG receptors and in the assay on UMUC9 cells were 102% and 68.6%, respectively.

As for `O=C(NCc1ccc(F)c(F)c1)c1ccc(Cl)c(C(=O)Nc2ccccc2)c1` [Example 44, 4-chloro-N^1-[(3,4-difluorophenyl)methyl]-N^3-phenylbenzene-1,3-dicarboxamide], the Emax at PPARG receptors is 51.5%; in the assay on UMUC9 cells, 103%. Also, the IC50 at PPARG receptors (setting [2]) turned out to be 7400 nM.

In the case of `Cc1ccccc1CNC(=O)c1ccc(Cl)c(C(=O)Nc2ccccc2)c1` [Example 47, 4-chloro-N^1-[(2-methylphenyl)methyl]-N^3-phenylbenzene-1,3-dicarboxamide], the values for the IC50 on PPARG receptors (setting [1]) and in the assay on UMUC9 cells were 895 nM and 2240 nM, respectively. For the same compound, the Emax on PPARG receptors was 92%; in the assay with UMUC9 cells, 66.9%.

As for `O=C(NCc1ccccc1)c1cc(Cl)c(Br)c(C(=O)Nc2ccccc2)c1` [Example 49, N^1-benzyl-4-bromo-5-chloro-N^3-phenylbenzene-1,3-dicarboxamide], the IC50 was 0.99 nM on PPARG receptors (setting [1]) and 3170 nM in the assay on UMUC9 cells. For the same compound, the Emax at PPARG receptors came to 72.5%; in the assay with UMUC9 cells, 34.5%.

As to `Cc1ccccc1NC(=O)c1cc(C(=O)NCc2ccccc2)cc(Cl)c1Br` [Example 50, N^1-benzyl-4-bromo-5-chloro-N^3-(2-methylphenyl)benzene-1,3-dicarboxamide], the IC50 at PPARG receptors (setting [1]) stood at 0.45 nM; with UMUC9 cells, 5.06 nM. The Emax at PPARG receptors amounted to 108%; in the assay with UMUC9 cells it was 50.8%.

Regarding `Cc1c(F)c(C(=O)NCc2ccc(F)c(F)c2)cc(C(=O)Nc2ccc(OCC(C)(C)O)cn2)c1Cl` [Example 52, 4-chloro-N^1-[(3,4-difluorophenyl)methyl]-6-fluoro-N^3-[5-(2-hydroxy-2-methylpropoxy)pyridin-2-yl]-5-methylbenzene-1,3-dicarboxamide], the results for the IC50 on PPARG receptors (setting [1]) and in the assay with UMUC9 cells were 1.5 nM and 746 nM, respectively. Also, the values for the Emax on PPARG receptors and in the assay on UMUC9 cells were 96% and 28.6%, respectively.
